Reference: a melting point compilation (Tetko et al.; mined from patent text by program, amines drawn as free bases though some values may be those of a salt)

SMILES	melting point [°C]
C[C@@H]1NC(=O)C[C@]1(C)O	169 to 173
COc1cc(CCO)cc(OC)c1-c1ccc(C[C@H](NC(=O)c2c(Cl)cccc2Cl)C(=O)OC(C)(C)C)cc1	96 to 98
Cc1nn(C)c(C)c1-c1cncc(OC2SCC(O)C(O)C2O)c1 (stereo not given)	174
COc1ccn2c(C)c(CCc3ccc4nc(N)oc4c3)nc2c1	220 to 221
CCCCCCC(=O)COS(=O)(=O)c1ccc(OCC)cc1	38 to 39
O=C(Nc1cc(S(=O)(=O)N2CCC(O)C2)sc1Cl)c1cnn2c(C(F)F)cc(-c3ccc(C(F)(F)F)cc3)nc12 (racemic)	274
CCC(CC)N(Cc1ccc(C(=O)O)cc1)S(=O)(=O)c1ccc(C)cc1	86 to 88
O=[N+]([O-])c1ccc(C=Cc2ccc(N3CCC(O)CC3)cc2)cc1	248 to 250
O=C1C2CC(F)CCN2C(=O)N1c1ncc(Cl)cc1F (stereo not given)	154 to 157
COc1ccc(CN(C)CCc2ccc(NC(=O)c3cccc4c(=O)c5c(OC)c(OC)c(OC)cc5[nH]c34)cc2)cc1OC	158
C=C(Nc1nc(-c2ccccc2)c(-c2nc3ccccc3c(=O)n2-c2ccccc2C)s1)c1ccco1	262 to 263
CC(C)(C)c1cc(C=C2SC(NCO)=NC2=O)cc(C(C)(C)C)c1O	177 to 179
COC(=O)c1cc(C)c(C(OC(=O)C(C)NS(=O)(=O)c2ccc(C)cc2)c2cc(-n3ccnc3)ccc2C)c(C)c1 (stereo not given)	103 to 105
COc1ccc(N2CCOCC2)c2sc(NC(=O)C[C@H]3CC[C@@H](OC(C)=O)C3)nc12 (relative stereo)	172 to 173
COc1ccc(CCNc2nc(C)c(CCO)c(=O)[nH]2)cc1	180
O=C1CCCCC1C(=S)Nc1ccc(Cl)cc1F (stereo not given)	97 to 98
COc1ccc(-n2c(C)ccc2-c2ccc(S(N)(=O)=O)cc2)cc1	196 to 197
COCc1cc(-n2nc(C(F)(F)F)cc2-c2ccc(-c3ccco3)cc2)ccc1S(C)(=O)=O	142 to 143
CC(C)CSc1ccnc(OS(C)(=O)=O)c1	34 to 35
O=Cc1ccc(Cl)c(Cl)c1O	97
CCC1C(O)C2C3CCC(C(C)CCC(=O)O)C3(C)CCC2C2(C)CCC(O)CC12 (stereo not given)	110
CN1C(=O)C(C)(Cc2ccccc2)N(C)C(=O)C1=Cc1cccnc1Cl (stereo not given)	146
O=C(CCl)Nc1ccc(OCc2nc3ccccc3s2)cc1	196 to 197
O=C(CCCc1ccccc1)N[C@H](Cc1ccc(F)cc1)[C@@H](O)c1ccc(C(F)(F)F)cc1 (racemic)	155 to 156

SMILES	melting point [°C]
CCOc1ccc([N+](=O)[O-])c(NC2CCOCC2)c1	117
Cc1ncsc1C(=O)Nc1ccc(-n2nc(C(F)(F)F)cc2C2CC2)cc1	137 to 141
CC(C#Cc1ccc(C(=O)O)c(O)c1)c1ccc2c(c1)C(C)(C)CCC2(C)C (stereo not given)	191 to 192
C#CCOc1cc(Cl)cc(Cl)c1OCC#C	61 to 63
CCCCCCCCC1C=CC(Oc2ccc(C(=O)O)o2)=C2N=C3CCCCC3=C21 (stereo not given)	130 to 132
CC(C)(C)OC(=O)N1CCN(c2ccc(Nc3nc(N)c(C(=O)c4c(Cl)cccc4Cl)s3)cc2)CC1	165 to 167
CC(C(=O)O)c1cccc2cn[nH]c12 (stereo not given)	171 to 176
CCCC(NC(=O)Cc1ccc(C(=O)O)c(OCC)c1)c1ccccc1N1CCCCC1 (stereo not given)	87 to 89
C=CCn1c(=O)n(CCN2CCN(c3ccccc3OC)CC2)c(=O)c2cscc21	131 to 132
Cc1ccccc1C=C(C#N)C#N	105 to 106
NC1SC=CN1Sc1ccc(F)cc1F (stereo not given)	116 to 117
COCCSc1sc(-c2cc[nH]n2)c2c1C(=O)CC(C)(C)C2	159 to 162
COc1nc(Br)nc(OC)n1	118 to 120
CCCn1cc(Cc2ccc(C(=O)NS(=O)(=O)c3ccccc3Br)cc2OC)c2cc(CCC(C)C(=O)N(C)C)ccc21 (stereo not given)	96 to 99
COc1cccc(C2(COc3cccc4cc(NS(=O)(=O)C(F)(F)F)ccc34)N=CNO2)c1 (stereo not given)	138 to 140
CCCc1c(OCCCOc2ccc(C(=O)OCC)cc2)ccc(C(C)=O)c1O	86 to 87
NC(=O)c1nnn(Cc2ccccc2F)c1N	189 to 190
COc1cccc(CC[C@H]2CNCCN2)c1	53 to 57
CC(C(N)=O)n1nc(-c2cc(C(C)(C)C)c(O)c(C(C)(C)C)c2)c2cccnc21 (stereo not given)	192 to 194
CSC1C(=O)Nc2c(Nc3ccccc3)cccc21 (stereo not given)	174 to 176
COCCN(C)Cc1ccnc2c(NC(=O)c3c(Cl)cccc3Cl)cccc12	128 to 134
CCCCCCCCCCCCCCCNC(=O)OCCOCCOCCOC(=O)NCc1ccccn1	58 to 62
O=C(CBr)c1ccc2oc3ccc(C(=O)CBr)cc3c(=O)c2c1	209 to 210
CCn1ncc2c1ncc1c(N3CCOCC3)nc3cc(C)nn3c12	179 to 180

SMILES	melting point [°C]
Cc1ccccc1S(=O)(=O)Nc1onc(C)c1Br	93 to 96
O=CNc1cc(-c2ccc(Cl)cc2)n[nH]1	151
CN(C=CC(=Nc1ccccc1)Oc1ccccc1)c1ccccc1	130 to 132
O=C(C=C1OC(=O)c2ccccc21)c1ccc(Cl)cc1	158 to 159
Cc1cc2c(c(-c3cc(Cl)ccc3Cl)c1)OC(CN)C2 (stereo not given)	155 to 156
CC(=O)Oc1ccc2c(c1)CCC1C2CCC2(C)C(OC(=O)c3ccccc3)CCC12 (stereo not given)	148 to 150
CC(C)(O)CC1CN=C(c2cc3cc(Oc4ccc(S(C)(=O)=O)cn4)cc(OC4CCOCC4)c3[nH]2)S1 (stereo not given)	129 to 130
Cc1ccc(-c2cc(C(N)=O)c(N)s2)cc1	228 to 230
CC(=O)c1ccc(NC(=O)NCCCN(CCCNC(=O)Nc2ccc(C(C)=O)cc2)CCCNC(=O)Nc2ccc(C(C)=O)cc2)cc1	184 to 185
CCCNC(=O)NC1CCCCC1	108 to 109
Nc1ccc2c(=O)[nH]c(=O)n(-c3ccccc3)c2n1	> 300
COc1ccc(N2CCOCC2)c2sc(-c3nc4c([nH]3)CCN(C(C)=O)C4)nc12	155 to 157
Nc1c(F)c(N2CCC(n3ccnn3)C2)c(F)c2c1c(=O)c(C(=O)O)cn2-c1ccc(F)cc1F (stereo not given)	308 to 309
Cc1ccc(S(=O)(=O)N2CCCC2c2ccc(C)cc2C)cc1 (racemic)	130
COc1ccc(S(=O)(=O)Nc2ccc(N(C)C)nc2Nc2ccccc2)cc1	152 to 153
O=C(O)c1cnc2cnc3ccccc3n2c1=O	216 to 218
CCCCCCCNC(=O)Nc1ccccc1C(=O)NCC1CCN(C(c2ccccc2)c2ccccc2)CC1	146 to 148
COc1ccc(N2CCN(c3c(C)c(C)c4c(c3C)C(N3CCCc5ccccc53)C(C)(C)O4)CC2)cc1 (stereo not given)	188 to 190
CC(=O)OCC(=O)Nc1nc2c(Cl)cccc2s1	205 to 207
CCCCOc1c(\C(C)=C/C=C/C(C)=C/C(=O)O)cc(C(C)(C)C)cc1C(C)(C)C	148 to 151
CCOC(=O)CCCSC(=S)NCc1ccc(Cl)cc1	61 to 62
N#CCOc1cc(Cl)c2c(=O)c(-c3ccccc3Cl)coc2c1	174 to 175
